The results in this text go back to patent US10080779B2, “Method for increasing the expression of anti-microbial peptides by keratinocytes comprising administering a composition comprising IL-17, TNF-alpha and OSM” (Universite D'Angers, priority 2004, dated 2018).

Data set [1] concerns RHE. The experiment in a line: RHE histology and immunohistochemistry (Example 14). It is filed as cell-based, human. The note with it: single cytokines, 72 h.
Data set [2] has as its system STAT3. The data set can be described thus: STAT3 phosphorylation in NHEK (Western blot). It is filed as cell-based, human. How it is done: (§1) For STAT3 and MAPK phosphorylation, NHEK were stimulated for 15 min in the presence of the indicated cytokine. Cells were lysed in SDS sample buffer (62.5 mM Tris-HCl pH 6.8, 2% SDS, 10% glycerol, 50 mM DTT, 0.1% bromophenol blue), sonicated and then submitted to SDS-PAGE and transferred onto an Immobilon membrane. The membranes were subsequently incubated overnight with the primary antibody, before being incubated with the appropriate peroxidase-labelled secondary antibody for 60 min. The reaction was visualized by chemiluminescence according to the manufacturer's instructions. Membranes were stripped in 0.1 M glycine pH 2.8 for 2 h and neutralized in 1 M Tris-HCl pH 7.6 before reblotting. For neutralizing experiments, NHEK were incubated with the appropriate antibodies for 2 h before stimulation.

For data set [3], the system named is NHEK. The data set can be described thus: Chemokine production by NHEK (ELISA), OSM. The class given is cell-based, human. The note with it: 48 h NHEK under OSM stimulation. How it is done: IL-1beta, IL-6, IL-8, IL-10, IL-12p70, TNF alpha, ENA-78, MIP 3 beta were measured by specific ELISA in 48 h NHEK culture supernatants. Cells were cultured in the presence or not of OSM. Dose-response (0.4 to 25 ng/ml) and kinetic (6 to 96 h) studies of ENA78 production were also performed.
A general note: In an ELISA, binding on a coated surface is turned into a signal by an enzyme label.

Data set [4] has as its system NHEK. The experiment in a line: In vitro keratinocyte migration assay. It is filed as cell-based, human. The following applies: mitomycin-treated wounded NHEK; OSM 10 ng/ml, IL-31 100 ng/ml. How it is done:
Keratinocytes were cultured in wells pre-coated with type I collagen (200 μg/ml, Institut Jacques Boy, Reims, France) until they reached 80% confluency. Cells were starved for 48 h in Keratinocyte SFM and then treated with 10 μg/ml of mitomycin C (Sigma) for 2 h to prevent cell proliferation. A cell-free area was created by scraping the keratinocyte monolayer with a plastic pipette tip. Keratinocytes migration to the cell-free area was evaluated after 48 h of culture in the absence or presence of EGF or OSM. Using an inverted phase contrast microscope. The number of migrating keratinocytes was counted in 4 non-overlapping fields. Values represent the mean±SEM of cells per mm^2 beyond the frontiers of the in vitro injury. Student's t test was used for statistical analysis.

The test system of data set [5] is NHEK. The experiment in a line: S100 proteins expression in NHEK (Western blot). It is filed as cell-based, human. The note with it: 10 ng/ml OSM, day 2 and day 4. How it is done:
[…] Cell lysis was performed with 50 mM Tris HCl pH 7.4, 150 mM NaCl, 1 mM EDTA, 1% Triton, 1% sodium deoxycholate, 0.1% SDS, 1 mM PMSF, 1 mM sodium orthovanadate, 1% protease inhibitors. S100A7, S100A8 and S100A9 were detected by immunochemistry as described above. Ponceau red staining was used to control loading homogeneity.
On the technique in general: In western blotting, separated proteins are transferred to a membrane and probed.

Data set [6] concerns NHEK. The experiment in a line: Keratinocyte differentiation marker (KDM) mRNA in NHEK (RT-PCR). The class given is cell-based, human. The note with it: 24 h. How it is done: (§2) Normal human epidermal keratinocytes (NHEK) were obtained as previously described, from surgical samples of healthy breast skin (Boniface et al, 2005). NHEK were cultured to 80% of confluence allowing the expression of a large panel of keratinocyte differentiation markers, and then starved for 24 h in Keratinocyte SFM containing 0.03 mM Ca^2+ (Invitrogen Life Technologies, Cergy Pontoise, France) before stimulation. Confluent differentiated cells were stimulated with or without recombinant IL-17A, OSM, TNFα, IL-22 and IL-1α alone at maximum effective concentrations (reported previously around 10 ng/ml (Boniface et al, 2005 and Boniface et al, 2007)) or in combination (R&D systems Europe, Lille, France) during 2 h to 72 h for mRNA quantification. RHE were generated on polycarbonate culture inserts, from surgical samples of paediatric foreskins as previously described (Guenou et al., 2009). RHE were stimulated with or without recombinant IL-17A, OSM, TNFα, IL-22 and IL-1α alone or in combination, with or without a Janus protein Tyrosine Kinases (JAKs) inhibitor 10 μM (Calbiochem, 420099), during 24 h for mRNA quantification or during 72 h for immunohistological analysis.
(§3) NHEK, RHE and murine skin total RNA were isolated using NucleoSpin® RNA II kit (Macherey-Nagel, Hoerdt, France) and reverse-transcribed with SuperScript® II Reverse Transcriptase (Invitrogen Life Technologies) according to the manufacturer's instructions. Quantitative real time PCR was carried out using the LightCycler-FastStart DNA Master SYBR® Green I kit on LightCycler 480 (Roche Diagnostics, Meylan, France). The reaction components were 1×DNA Master Mix, and 0.5 μM of HPLC purified sense and anti-sense oligonucleotides purchased from Eurogentec (Eurogentec France, Angers, France), designed using Primer3 software. The stability of the housekeeping gene expression has been assessed by using GeNorm algorithm. […] Thus samples were normalized to G3PDH housekeeping gene and reported according to the ΔΔCT method as RNA fold increase: 2^ΔΔCT=2^ΔCT sample−ΔCT reference.

In data set [7] the test system is MAP kinase (ERK1/2). The experiment in a line: MAP kinase phosphorylation in NHEK (Western blot). The class given is cell-based, human. The following applies: NHEK stimulated with OSM. How it is done:
as §1

Data set [8] relates to RHE. The data set can be described thus: KDM mRNA in reconstituted human epidermis (RT-PCR). The class given is cell-based. The following applies: 24 h. How it is done:
as §2, §3

Where only a bound is given, the exact number is not on record here.

As to “OSM: human recombinant oncostatin M, cytokine of the IL-6 family”, in data set [1] (RHE), the “CK10, LOR and FLG expression (immunohistology)” value is “decreases expression of CK10, LOR and FLG”; the “IVL expression (immunohistology)” value is reported as “strongly”; the “S100A7 expression (immunohistology)” value is on record as “strongly induced”. For the same substance, the RHE histology entry in data set [1] is “significant keratinocyte hyperplasia”. In data set [2] (NHEK stimulated 15 min with the cytokine), the “STAT3 tyrosine phosphorylation (P-STAT3)” value was “strong induction of tyrosine phosphorylation”. In data set [2] (NHEK, 15 min), the “OSM concentration down to which plateau P-STAT3 level is still present” value is no less than 3 ng/mL. The “Production of chemokines CXCL5 and CXCL8” value in data set [3] was “clearly enhanced”. The “Keratinocyte migration to the cell-free area” value in data set [4] is reported as “important migration of NHEK, similar to that observed in the presence of EGF”. Also, the “S100A7, S100A8, S100A9 protein expression” value in data set [5] is “increased expression of studied proteins”. Also, the “Rank as contributor to keratinocyte differentiation inhibition (removal from M5)” value in data set [6] is given as “most potent cytokines for keratinocyte differentiation inhibition”. Further, in data set [6] (single cytokines 10 ng/ml), the “mRNA expression of CK1, DSG1, DSC1, FLG, CLSP, LOR and FABPS” value is given as “downregulate mRNA expression”. In data set [7], the MAP kinase phosphorylation entry is “quickly increased the MAP kinase phosphorylation”. For the same substance, in data set [8], the “Expression of KDM mRNA (CK10, CK1, LOR, FLG)” value is reported as “most active cytokines” and the “S100A7 mRNA expression” value is listed as “strongly induced”.
